Reference: patent publication US20130165520A1, “Hybrid Molecule Having Mixed Retinoic Acid Receptor Agonism and Histone Deacetylase Inhibitory Properties” (priority 2010, published 2013)

Tests used:
SK-MEL-5 = SK-MEL-5 (Melanoma); 48 h
T-47D = assay: cells; details: Homo sapiens, T47D, 48 h
SN12C = SN12C (Renal); 48 h
KM12 = KM12 (Colon); 48 h
MDA-MB-231 = assay: Cell growth measurement; assay type: cell-based; details: 10 days of treatment
Procedure: (§1) Finally, the effects of 3 on the growth of several breast cancer cell lines [MCF-7 (ER-positive, HER2-negative, RA-sensitive); SkBr3 (ER-negative, HER2-amplified, RA-sensitive); and the normally RA-insensitive MDA-MB-231 (ER-negative, HER2-negative, RA-insensitive)] was assessed.
(§2) Cell Growth Measurement: Cells were plated at 40 k cells per well (6-well plate) in DMEM 5% FBS-T for all cell lines except for I-IMEC cells which were plated in supplemented MEBM from Clonetics. Cells were treated every 48 hours and media was refreshed every 96 hours. After 10 days of treatment cells were harvested in 0.1N NaOH and growth was quantified by analyzing protein content of lysates with a Lowry assay.

SkBr3 = assay: Cell growth measurement; assay type: cell-based; details: 10 days of treatment
Procedure: as §1, §2

MCF-7 = assay: Cell growth measurement; assay type: cell-based; details: 10 days of treatment
Procedure: as §1, §2

SW-620 = assay: cells; details: Homo sapiens, SW-620, 48 h
DU-145 = DU-145 (Prostate); 48 h
RXF393 = assay: cells; details: Homo sapiens, RXF 393, 48 h
RARα = target: T1, RARα (Homo sapiens, UniProt P10276); assay: BRET assay of agonist-dependent coactivator recruitment in transfected HEK293 cells; assay type: cell-based
T1 sequence (P10276 1-462): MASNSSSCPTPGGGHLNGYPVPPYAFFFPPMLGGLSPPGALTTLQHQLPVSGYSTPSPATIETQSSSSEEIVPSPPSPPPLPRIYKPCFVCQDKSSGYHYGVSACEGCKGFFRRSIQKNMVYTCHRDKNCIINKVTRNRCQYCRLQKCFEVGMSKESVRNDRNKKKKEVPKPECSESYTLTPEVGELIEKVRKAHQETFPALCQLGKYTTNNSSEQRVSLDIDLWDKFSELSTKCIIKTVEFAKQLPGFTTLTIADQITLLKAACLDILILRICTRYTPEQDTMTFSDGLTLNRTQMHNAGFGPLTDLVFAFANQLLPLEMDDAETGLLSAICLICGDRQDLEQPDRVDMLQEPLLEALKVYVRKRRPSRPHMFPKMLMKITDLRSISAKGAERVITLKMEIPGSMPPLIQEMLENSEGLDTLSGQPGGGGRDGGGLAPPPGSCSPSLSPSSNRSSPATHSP
Procedure: Hybrid 3 was prepared by treatment of the methyl ester of TTNN with excess hydroxylamine under alkaline conditions. The effects of hybrid 3 on RAR were initially assessed using a bioluminescence resonance energy transfer (BRET) assay. The BRET assay monitors agonist-dependent recruitment of coactivators to RARs in transfected HEK293 cells, chosen because of their high degree of transfectability. Energy transfer between luciferase (fused to RARα) and eGFP (fused to the LXXLL coactivator motif) occurs only when these moieties are juxtaposed by the RAR-LXXLL interaction, and can be detected by the emission of green fluorescence.
Cell transfection and BRET assays: HEK293 cells were grown to confluence, trypsinized and plated at a density of 500 k cells per well (12-well plates) in DMEM supplemented with 10% charcoal treated FBS (FBS-T). The following day, cells were transfected with PEI using 0.1 μg of RAR-RLuc vector and 1 μg of LXXLL-eGFP vector. 48 hours post-transfection, cells were treated with retinoids for 2 hours before taking BRET measurements as described previously.

SF-268 = SF-268 (CNS); 48 h
K-562 = assay: cells; details: Homo sapiens, K562, 48 h
SNB-75 = assay: cells; details: Homo sapiens, SNB-75, 48 h
NCI-H322M = assay: cells; details: Homo sapiens, 48 h
NCI-H522 = NCI-H522 (Non-Small cell lung cancer); 48 h
HT29 = assay: cells; details: Homo sapiens, HT-29, 48 h
ACHN = ACHN (Renal); 48 h
MDA-MB-468 = MDA-MB-468 (Breast); 48 h
[1] = tested on: RAR target genes in MDA-MB-231 cell line; assay: RT-qPCR analysis of RAR and HDACi target genes; assay type: cell-based
Description: The agonist activity of 3 through its effects on RAR target genes was subsequently analyzed (FIG. 3).

MCF7 = MCF7 (Breast); 48 h
SNB-19 = SNB-19 (CNS); 48 h
[2] = tested on: acetylated histone H4 and p53 in MDA-MB-231 cells; assay: Western blotting of acetylated histone H4 and p53; details: 10 μM, 18-24 h time course
Procedure: The potential of 3 to act as an HDACi and cause deacetylation of a synthetic substrate or hyperacetylation of HDACs target proteins was subsequently assessed. […] Intracellular HDACi activity was assessed by measuring levels of acetylated histone H4 and tumor suppressor protein p53 in MDA-MB-231 cells by Western blotting.
Western Blotting: MDA-MB-231 cells were plated in DMEM 5% FBS-T at 600 k cells per well in 6-well plates. […] Laemmli buffer at various time points. Protein concentration of the extracts was analyzed by BioRad DC protein assay. 20 μg of proteins per condition were loaded on an SDS-PA gel and transferred to a nitrocellulose membrane for blotting. Blotting was done using ABCAM primary antibodies EP356 (anti-p53) T3526 (anti-Tubulin) and AB1761 (anti-acH4).

In the case of `CC1(C)CCC(C)(C)c2cc(-c3ccc4cc(C(=O)NO)ccc4c3)ccc21` [hybrid 3], the TGI (SK-MEL-5) is reported as 2310 nM, the GI50 (T-47D) is reported as 1270 nM and the CC50 (T-47D; read-out: LC50) is reported as 28000 nM. The TGI (SN12C) was 2370 nM, the TGI (KM12) was 1880 nM and the “effect on cell growth” value (MDA-MB-231) was “active”. The IC50 (MDA-MB-231; Homo sapiens, 240 h) was 300 nM, the “effect on cell growth” value (SkBr3) was “active” and the IC50 (SkBr3; Homo sapiens, SK-BR-3, 240 h) was 90 nM. For the same compound, the “effect on cell growth” value (MCF-7) was “active”, the IC50 (MCF-7; Homo sapiens, MCF7, 240 h) was 150 nM and the GI50 (SW-620) was 626 nM. The CC50 (SW-620; read-out: LC50) was 4850 nM, the TGI (DU-145) was 1900 nM and the GI50 (RXF393) was 1260 nM. For the same compound, the CC50 (RXF393; read-out: LC50) was 6270 nM, the “RARα agonism (BRET signal)” value (RARα; 1 μM, 2 hours treatment) was “agonists of RARα” and the EC50 (RARα; FIG. 2b, read-out: IC50 in inducing RARα (BRET dose-response)) was 1020 nM. It also gave a TGI (SF-268) of 1850 nM, a GI50 (K-562) of 399 nM and a CC50 (K-562; read-out: LC50) of 5510 nM. For the same compound, the GI50 (SNB-75) was 1740 nM, the CC50 (SNB-75; read-out: LC50) was 24900 nM and the GI50 (NCI-H322M) was 446 nM. The CC50 (NCI-H322M; read-out: LC50) was 26200 nM, the TGI (NCI-H522) was 3590 nM and the GI50 (HT29) was 575 nM. The CC50 (HT29; read-out: LC50) was 7600 nM, the TGI (ACHN) was 1490 nM and the TGI (MDA-MB-468) was 2750 nM. The “regulation of HDACi-regulated genes RARB1 and CyclinD1” value ([1]; MDA-MB-231) was “follow similar regulation”, the “induction of RAR target genes (RT-qPCR)” value ([1]; MDA-MB-231 cell line) was “clear induction of RARB2 and DHRS3” and the TGI (MCF7) was 1680 nM. For the same compound, the TGI (SNB-19) was 2360 nM and the “hyperacetylation of histone H4 and p53” value [2] was “clear hyperacetylation”.
